Experimental data reported in US10294202B2, “Pyrrolidinones as herbicides” (FMC Corporation, priority 2013, dated 2019).

Assays:
[1] = test system: field poppy; test: Test D pre-/postemergence herbicide test; type: in vivo, Papaver rhoeas; settings: for Plant response rating: Field Poppy, scale 0 to 100; for Plant response rating, Field Poppy: scale 0 to 100 (0 no effect, 100 complete control)
Description: Seeds of plant species selected from bluegrass (annual bluegrass, Poa annua), blackgrass (Alopecurus myosuroides), canarygrass (littleseed canarygrass, Phalaris minor), chickweed (common chickweed, Stellaria media), galium (catchweed bedstraw, Galium aparine), bromegrass, downy (downy bromegrass, Bromus tectorum), field poppy (Papaver rhoeas), field violet (Viola arvensis), foxtail, green (green foxtail, Setaria viridis), deadnettle (henbit deadnettle, Lamium amplexicaule), ryegrass, Italian (Italian ryegrass, Lolium multiflorum), kochia (Kochia scoparia), lambsquarters (Chenopodium album), oilseed rape (Brassica napus), pigweed (Amaranthus retroflexus), chamomile (scentless chamomile, Matricaria inodora), Russian thistle (Salsola kali), speedwell (bird's-eye speedwell, Veronica persica), barley, spring (spring barley, Hordeum vulgare), wheat, spring (spring wheat, Triticum aestivum), buckwheat, wild (wild buckwheat, Polygonum convolvulus), mustard, wild (wild mustard, Sinapis arvensis), oat, wild (wild oat, Avena fatua), radish, wild (wild radish, Raphanus raphanistrum), […]), barley, winter (winter barley, Hordeum vulgare), and wheat, winter (winter wheat, Triticum aestivum) were planted into a silt loam soil and treated preemergence with test chemicals formulated in a non-phytotoxic solvent mixture which included a surfactant. At the same time, these species were planted in pots containing Redi-Earth® planting medium (Scotts Company, 14111 Scottslawn Road, Marysville, Ohio 43041) comprising spaghnum peat moss, vermiculite, wetting agent and starter nutrients and treated with postemergence applications of the test chemicals formulated in the same manner. Plants ranged in height from 2 to 18 cm (1- to 4-leaf stage). Treated plants and controls were maintained in a controlled growth environment for 7 to 21 days after which time all species were compared to controls and visually evaluated. Plant response ratings, summarized in Table D, are based on a scale of 0 to 100 where 0 is no effect and 100 is complete control. A dash (-) response means no test result.

[2] = test system: goosegrass; test: Test C pre-/postemergence herbicide test; type: in vivo, Eleusine indica
Description: Seeds of plant species selected from blackgrass (Alopecurus myosuroides), ryegrass, Italian (Italian ryegrass, Lolium multiflorum), wheat (winter wheat, Triticum aestivum), galium (catchweed bedstraw, Galium aparine), corn (Zea mays), crabgrass, large (large crabgrass, Digitaria sanguinalis), foxtail, giant (giant foxtail, Setaria faberii), johnsongrass (Sorghum halepense), lambsquarters (Chenopodium album), morningglory (Ipomoea coccinea), nutsedge, yellow (yellow nutsedge, Cyperus esculentus), pigweed (Amaranthus retroflexus), ragweed (common ragweed, Ambrosia elatior), soybean (Glycine max), barnyardgrass (Echinochloa crus-galli), oilseed rape (Brassica napus), waterhemp (common waterhemp, Amaranthus rudis), kochia (Kochia scoparia), oat, wild (wild oat, Avena fatua), surinam grass (Brachiaria decumbens), foxtail, green (green foxtail, Setaria viridis), goosegrass (Eleusine indica), bromegrass, downy (downy bromegrass, Bromus tectorum), nightshade (eastern black nightshade, Solanum ptycanthum), cocklebur (common cocklebur, Xanthium strumarium), cupgrass, woolly (woolly cupgrass, Eriochloa villosa), bermudagrass (Cynodon dactylon), sunflower, (common oilseed sunflower, Helianthus annuus), Russian thistle (Salsola kali) and velvetleaf (Abutilon theophrasti) were planted into a blend of loam soil and sand and treated preemergence with test chemicals formulated in a non-phytotoxic solvent mixture which included a surfactant. At the same time, plants selected from these crop and weed species and also barley (winter barley, Hordeum vulgare), […]), chickweed (common chickweed, Stellaria media), deadnettle (henbit deadnettle, Lamium amplexicaule), and canarygrass (littleseed canarygrass, Phalaris minor) were planted in pots containing Redi-Earth® planting medium (Scotts Company, 14111 Scottslawn Road, Marysville, Ohio 43041) comprising spaghnum peat moss, vermiculite, wetting agent and starter nutrients and treated with postemergence applications of test chemicals formulated in the same manner. Plants ranged in height from 2 to 18 cm (1- to 4-leaf stage) for postemergence treatments. Treated plants and controls were maintained in a greenhouse for 13 to 15 days, after which time all species were compared to controls and visually evaluated. Plant response ratings, summarized in Table C, are based on a scale of 0 to 100 where 0 is no effect and 100 is complete control. A dash (-) response means no test result.

[3] = test system: panicum, fall; test: Test E preemergence herbicide test; type: in vivo, Panicum dichotomiflorum; parameters: key: 0 = no effect, 100 = complete control
Description: (§1) Seeds of plant species selected from corn (Zea mays), soybean (Glycine max), velvetleaf (Abutilon theophrasti), lambsquarters (Chenopodium album), wild poinsettia (Euphorbia heterophylla), pigweed, palmer (palmer pigweed, Amaranthus palmeri), waterhemp (common waterhemp, Amaranthus rudis), surinam grass (Brachiaria decumbens), crabgrass, large (large crabgrass, Digitaria sanguinalis), crabgrass, Brazil (Brazilian crabgrass, Digitaria horizontalis), panicum, fall (fall panicum, Panicum dichotomiflorum), foxtail, giant (giant foxtail, Setaria faberii), foxtail, green (green foxtail, Setaria viridis), goosegrass (Eleusine indica), johnsongrass (Sorghum halepense), ragweed (common ragweed, Ambrosia elatior), barnyardgrass (Echinochloa crus-galli), sandbur (southern sandbur, Cenchrus echinatus), arrowleaf […] rhombifolia), ryegrass, Italian (Italian ryegrass, Lolium multiflorum), dayflower, VA (Virginia dayflower, Commelina virginica), field bindweed (Convolvulus arvensis), morningglory (Ipomoea coccinea), nightshade (eastern black nightshade, Solanum ptycanthum), kochia (Kochia scoparia), nutsedge, yellow (yellow nutsedge, Cyperus esculentus), cocklebur (common cocklebur, Xanthium strumarium), smartweed (ladysthumb smartweed, Polygonum Persicaria) and beggarticks (hairy beggarticks, Bidens pilosa), were planted into a silt loam soil and treated preemergence with test chemicals formulated in a non-phytotoxic solvent mixture which included a surfactant. Treated plants and controls were maintained in a greenhouse for 21 days, after which time all species were compared to controls and visually evaluated. Plant response ratings, summarized in Table E, are based on a scale of 0 to 100 where 0 is no effect and 100 is complete control. A dash (-) response means no test result.

[4] = test system: ragweed; test: Test E preemergence herbicide test; type: in vivo, Ambrosia elatior; parameters: key: 0 = no effect, 100 = complete control
Description: as §1

[5] = test system: waterhemp; test: Test E preemergence herbicide test; type: in vivo, Amaranthus rudis; parameters: key: 0 = no effect, 100 = complete control
Description: as §1

[6] = Preemergence, 62 g ai/ha, scale 0 to 100
[7] = Preemergence, 125 g ai/ha, scale 0 to 100 (0 no effect, 100 complete control)
[8] = Preemergence, 31 g ai/ha, scale 0 to 100 (0 no effect, 100 complete control)
[9] = Postemergence, 31 g ai/ha, scale 0 (no effect) to 100 (complete control)
[10] = Postemergence, 62 g ai/ha, scale 0 to 100 (0 no effect, 100 complete control)
[11] = Postemergence, 125 g ai/ha, scale 0 to 100 (0 no effect, 100 complete control)
[12] = Postemergence, 250 g ai/ha, scale 0 to 100 (0 no effect, 100 complete control)

Structure (SMILES) | Plant response rating ([1]; Postemergence, 16 g ai/ha) | Plant response rating ([1]; Postemergence, 31 g ai/ha) | Plant response rating ([1]; Postemergence, 62 g ai/ha) | Plant response rating ([1]; Postemergence, 125 g ai/ha) | Plant response rating ([1]; Postemergence, 250 g ai/ha) | Plant response rating, Field Poppy ([1]; Preemergence, 62 g ai/ha) | Plant response rating, Field Poppy ([1]; Preemergence, 31 g ai/ha) | Plant response rating ([1]; Preemergence, 125 g ai/ha) | Plant response rating ([1]; Preemergence, 250 g ai/ha) | Plant response rating, Goosegrass [2, 6] | Plant response rating, Goosegrass [2, 7] | Goosegrass plant response rating [2, 8] | Plant response rating, Goosegrass [2, 9] | Plant response rating, Goosegrass [2, 10] | Plant response rating, Goosegrass [2, 11] | Plant response rating, Goosegrass [2, 12] | further results
O=C1NCC(c2ccc(F)c(F)c2)C1C(=O)Nc1ccccc1C(F)(F)F (racemic) [Compound 6] | 0 | 0 | 20 | 20 | 30 | 0 | 0 | 0 | 100 | – | – | – | – | – | – | – | –
O=C1NCC(c2ccc(F)c(C(F)(F)F)c2)C1C(=O)Nc1cccc(F)c1F (racemic) [Compound 77] | – | – | – | – | – | 90 | 75 | 95 | 100 | – | – | – | – | – | – | – | –
O=C1NCCC1C(=O)N(c1ccc(F)c(F)c1)c1ccccc1F (stereo not shown) [Compound 5, N-(3,4-difluorophenyl)-N-(2-fluorophenyl)-2-oxo-3-pyrrolidinecarboxamide] | – | – | – | – | – | – | – | – | – | 0 | 0 | 0 | – | – | – | – | –
O=C1NCC(c2ccc(F)c(F)c2)C1C(=O)Nc1cccc(F)c1F (stereo not shown) [Compound 17, N-(2,3-difluorophenyl)-4-(3,4-difluorophenyl)-2-oxo-3-pyrrolidinecarboxamide] | 0 | 0 | 0 | 0 | 0 | – | – | – | – | 50 | 85 | 0 | 0 | 0 | 0 | 0 | Plant response rating, Panicum, Fall ([3]; 16 g ai/ha): 0; Plant response rating, Panicum, Fall ([3]; 31 g ai/ha): 0; Plant response rating, Panicum, Fall ([3]; 62 g ai/ha): 0; Plant response rating, Panicum, Fall ([3]; 125 g ai/ha): 0; Plant response rating, Panicum, Fall ([3]; 250 g ai/ha): 0; Plant response rating, Ragweed ([4]; 16 g ai/ha): 0; Plant response rating, Ragweed ([4]; 31 g ai/ha): 0; Plant response rating, Ragweed ([4]; 62 g ai/ha): 0; Plant response rating, Ragweed ([4]; 125 g ai/ha): 0; Plant response rating, Ragweed ([4]; 250 g ai/ha): 0; Plant response rating, Waterhemp ([5]; 16 g ai/ha): 0; Plant response rating, Waterhemp ([5]; 31 g ai/ha): 0; Plant response rating, Waterhemp ([5]; 62 g ai/ha): 0; Plant response rating, Waterhemp ([5]; 125 g ai/ha): 0; Plant response rating, Waterhemp ([5]; 250 g ai/ha): 0
O=C1NCC(c2cc(F)c(F)c(F)c2)C1C(=O)Nc1cccc(F)c1F (stereo not shown) [Compound 48] | – | – | – | – | – | – | – | – | – | 10 | 15 | 0 | 10 | 10 | 10 | – | Plant response rating, Goosegrass ([2]; Postemergence, 16 g ai/ha, scale 0 to 100 (0 no effect, 100 complete control)): 10; Plant response rating, Goosegrass ([2]; Preemergence, 16 g ai/ha, scale 0 to 100): 0
O=C1NCC(c2cc(F)c(F)cc2F)C1C(=O)Nc1cccc(F)c1F (stereo not shown) [Compound 50] | 0 | 0 | 0 | 0 | – | 0 | 50 | 65 | – | – | – | – | 25 | 25 | 25 | 25 | Plant response rating, Field Poppy ([1]; Preemergence, 16 g ai/ha): 0
O=C1NCC(c2ccc(Cl)c(F)c2)C1C(=O)Nc1cccc(F)c1F (stereo not shown) [Compound 52] | 0 | 0 | 0 | 0 | 0 | 50 | 50 | – | 80 | 20 | 60 | 10 | 0 | 0 | 20 | 20 | Plant response rating, Field Poppy ([1]; Preemergence, 16 g ai/ha): 30
O=C1NCC(c2ccc(F)c(Cl)c2)C1C(=O)Nc1ccccc1F (stereo not shown) [Compound 60] | – | – | – | – | – | – | – | – | – | 0 | 0 | 0 | 0 | 0 | 0 | – | –
O=C1NCC(c2cccc(OC(F)(F)F)c2)C1C(=O)Nc1ccccc1F (stereo not shown) [Compound 69] | – | – | – | – | – | – | – | – | – | 40 | 40 | – | – | – | – | – | Goosegrass plant response rating ([2]; Preemergence, 31 g ai/ha, scale 0 to 100, 0 is no effect and 100 is complete control): 20; Plant response rating (scale of 0 to 100), Goosegrass ([2]; Preemergence, 250 g ai/ha): 75
O=C1NCC(c2ccc(C(F)(F)F)cc2)C1C(=O)Nc1ccccc1F (stereo not shown) [Compound 231] | – | 0 | 20 | 0 | 50 | 80 | 80 | – | 95 | – | – | – | – | – | – | – | Plant response rating, Field Poppy ([1]; Preemergence, 125 g ai/ha): 100
